Laboratory results taken from patent US9040516B2, “Uracil derivative and use thereof for medical purposes” (SUMITOMO DAINIPPON PHARMA CO., LTD., priority 2011, dated 2015).
Counter-ions that a name gives are not always drawn.

Molecular target: T1, human neutrophil elastase (Homo sapiens, UniProt P08246)
T1 construct: purchased Elastin Products Company
T1 sequence (P08246 30-267): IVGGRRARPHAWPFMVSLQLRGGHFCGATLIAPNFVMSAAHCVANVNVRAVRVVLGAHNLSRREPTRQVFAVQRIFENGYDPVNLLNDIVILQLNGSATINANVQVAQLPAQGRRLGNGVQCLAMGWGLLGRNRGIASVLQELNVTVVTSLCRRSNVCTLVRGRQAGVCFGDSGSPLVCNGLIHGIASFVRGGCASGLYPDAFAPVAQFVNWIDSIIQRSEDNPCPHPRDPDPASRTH
Test: Inhibitory action against human neutrophil elastase (Test Example 1; fluorogenic substrate MeOSuc-AAPV-AMC, buffer with 2M NaCl, 0.002% Brij-35)
Format: biochemical
Conditions: 37° C., read-out: IC50 value (compound concentration required for 50% inhibition of human neutrophil elastase)
Description: Assay buffer (0.4 unit/ml HNE (human neutrophil elastase, available from Elastin Products Company), 200 mM HEPES [N-(2-hydroxyethyl)piperazine-N′-(2-ethanesulfonic acid)], pH 7.5, 2M NaCl, 0.002% Brij-35) 100 μl, water for injection 40 μl and DMSO (dimethyl sulfoxide) solution of the present compound 20 μl were mixed in a 96 well plate and the mixed solutions were pre-incubated at 37° C. for five minutes. After pre-incubation, MeOSuc-AAPV-AMC (methoxysuccinyl-alanyl-alanyl-prolyl-valyl-aminomethyl cumaride (available from Sigma Aldrich Co.) solution as fluorogenic substrate (which was dissolved in 10% DMSO solution so as to adjust to 0.5 mM) 40 μl was added to the above-prepared mixed solution so as to initiate the reaction, and the mixture was incubated at 37° C. for five minutes. The fluorescence intensity of AMC was measured at an excitation wavelength of 380 nm and a fluorescence wavelength of 460 nm and the inhibition ratio was determined.

Compound | IC50 [µM]
CN(C)C=Nc1c(-c2ccnn2-c2ccc(C#N)cc2)c(=O)n(C)c(=O)n1-c1cccc(C(F)(F)F)c1 [Example 28, N′-[5-[1-(4-cyanophenyl)-1H-pyrazol-5-yl]-1-methyl-2,6-dioxo-3-(3-trifluoromethylphenyl)-1,2,3,6-tetrahydropyrimidin-4-yl]-N,N-dimethylformimidamide] | 2.24
CNC(=O)c1cccc(-n2c(C)c(-c3ccnn3-c3ccc(C#N)cc3)c(=O)n(C)c2=O)c1 [Example 105, 3-[5-[1-(4-cyanophenyl)1H-pyrazol-5-yl]-3,6-dimethyl-2,4-dioxo-3,4-dihydropyrimidin-1(2H)yl]-N-methylbenzamide] | 22.3
2-[3,6-dimethyl-2,4-dioxo-1-(3-trifluoromethylphenyl)-1,2,3,4-tetrahydropyrimidin-5-yl]biphenyl-4-carbonitrile [Example 60] | 0.076
Cc1c(-c2ccnn2-c2ccc(C#N)nc2)c(=O)n(C)c(=O)n1-c1cccc(C(F)(F)F)c1 [Example 23, 5-[5-[3,6-dimethyl-2,4-dioxo-1-(3-trifluoromethylphenyl)-1,2,3,4-tetrahydropyrimidin-5-yl]-1H-pyrazol-1-yl]picolinonitrile] | 0.651
Cc1c(-c2ccnn2-c2ccc(C#N)cc2)c(=O)n(CC(=O)OCc2ccccc2)c(=O)n1-c1cccc(C(F)(F)F)c1 [Example 6, 2-[5-[1-(4-cyanophenyl)-1H-pyrazol-5-yl]-4-methyl-2,6-dioxo-3-(3-trifluoromethylphenyl)-2,3-dihydropyrimidin-1(6H)-yl]acetic acid benzyl ester] | 0.123
Cc1c(-c2ccnn2-c2ccc(C#N)cc2)c(=O)n(C)c(=O)n1-c1cccc(C(C)(C)C)c1 [Example 38, 4-(5-(1-(3-tert-butylphenyl)-3,6-dimethyl-2,4-dioxo-1,2,3,4-tetrahydropyrimidin-5-yl)-1H-pyrazol-1-yl)benzonitrile] | 7.91
Cc1c(-c2ccnn2-c2ccc(C#N)cc2)c(=O)n(C)c(=O)n1-c1ccccc1 [Example 14, 4-[5-(1-phenyl-3,6-dimethyl-2,4-dioxo-1,2,3,4-tetrahydropyrimidin-5-yl)-1H-pyrazol-1-yl]benzonitrile] | 12.6
COc1ccc(-n2nccc2-c2c(C)n(-c3cccc(C(F)(F)F)c3)c(=O)n(C)c2=O)cc1 [Example 40, 5-(1-(4-methoxyphenyl)-1H-pyrazol-5-yl)-3,6-dimethyl-1-(3-(trifluoromethyl)phenyl)pyrimidin-2,4(1H,3H)-dione] | 8.34
COc1cccc(-n2c(C)c(-c3ccnn3-c3ccc(C#N)cc3)c(=O)n(C)c2=O)c1 [Example 12, 4-[5-[1-(3-methoxyphenyl)-3,6-dimethyl-2,4-dioxo-1,2,3,4-tetrahydropyrimidin-5-yl]-1H-pyrazol-1-yl]benzonitrile] | 1.49
Cc1c(-c2ccnn2-c2ccc(C#N)cc2)c(=O)n(CC=O)c(=O)n1-c1cccc(C(F)(F)F)c1 [Example 68] | 0.111
Cc1c(-c2ccnn2-c2ccc(C#N)cc2)c(=O)n(C)c(=O)n1-c1cccc(C(F)(F)F)n1 [Example 33, 4-[5-[3,6-dimethyl-2,4-dioxo-1-(6-trifluoromethylpyridine-2-yl)-1,2,3,4-tetrahydropyrimidin-5-yl]-1H-pyrazol-1-yl]benzonitrile] | 74.6
Cc1c(-c2ccnn2-c2ccc(C#N)cc2)c(=O)n(CCC(=O)N(C)C)c(=O)n1-c1cccc(C(F)(F)F)c1 [Example 75, 3-[5-[1-(4-Cyanophenyl)-1H-pyrazol-5-yl]-4-methyl-2,6-dioxo-3-(3-trifluoromethylphenyl)-2,3-dihydropyrimidin-1(6H)-yl]-N,N-dimethylpropaneamide] | 0.656
COC(Cn1c(=O)c(-c2ccnn2-c2ccc(C#N)cc2)c(C)n(-c2cccc(C(F)(F)F)c2)c1=O)OC [Example 7, 4-[5-[3-(2,2-dimethoxyethyl)-6-methyl-2,4-dioxo-1-(3-trifluoromethylphenyl)-1,2,3,4-tetrahydropyrimidin-5-yl]-1H-pyrazol-1-yl]benzonitrile] | 0.12
Cn1c(=O)c(-c2ccnn2-c2ccc(C#N)cc2)c(N)n(-c2cccc(C(F)(F)F)c2)c1=O [Example 58, 4-[5-[6-Amino-3-methyl-2,4-dioxo-1-(3-trifluoromethylphenyl)-1,2,3,4-tetrahydropyrimidin-5-yl]-1H-pyrazol-1-yl]benzonitrile] | 0.552
Cc1c(-c2ccnn2-c2ccc(C#N)cc2)c(=O)n(CCCC(=O)O)c(=O)n1-c1cccc(C(F)(F)F)c1 [Example 74, 4-[5-[1-(4-Cyanophenyl)-1H-pyrazol-5-yl]-4-methyl-2,6-dioxo-3-(3-trifluoromethylphenyl)-2,3-dihydropyrimidin-1(6H)-yl]butanoic acid] | 0.312
CNC(=O)Cn1c(=O)c(-c2ccnn2-c2ccc(C#N)cc2)c(C)n(-c2cccc(C(F)(F)F)c2)c1=O [Example 77, 2-[5-[1-(4-cyanophenyl)-1H-pyrazol-5-yl]-4-methyl-2,6-dioxo-3-(3-trifluoromethylphenyl)-2,3-dihydropyrimidin-1(6H)-yl]-N-methylacetamide] | 0.184

Results, then the compound that gave them:

IC50 [µM] | Compound
0.019 | Cc1c(-c2ccnn2-c2ccc(C#N)cc2)c(=O)n(C)c(=O)n1-c1cccc(C(F)(F)F)c1 [Example 1, 4-[5-[3,6-dimethyl-2,4-dioxo-1-(3-trifluoromethylphenyl)-1,2,3,4-tetrahydropyrimidin-5-yl]-1H-pyrazol-1-yl]benzonitrile]
0.095 | Cc1c(-c2ccnn2-c2ccc(C#N)cc2)c(=O)n(C)c(=O)n1-c1cccc(Cl)c1 [Example 17, 4-[5-[1-(3-chlorophenyl)-3,6-dimethyl-2,4-dioxo-1,2,3,4-tetrahydropyrimidin-5-yl]-1H-pyrazol-1-yl]benzonitrile]
0.111 | CSc1cc(C#N)ccc1-n1nccc1-c1c(C)n(-c2cccc(C(F)(F)F)c2)c(=O)n(C)c1=O [Example 36, 4-[5-[3,6-dimethyl-2,4-dioxo-1-(3-trifluoromethylphenyl)-1,2,3,4-tetrahydropyrimidin-5-yl]-1H-pyrazol-1-yl]-3-(methylthio)benzonitrile]
0.035 | CCCn1c(=O)c(-c2ccnn2-c2ccc(C#N)cc2)c(C)n(-c2cccc(C(F)(F)F)c2)c1=O [Example 2, 4-[5-[6-methyl-2,4-dioxo-3-propyl-1-(3-trifluoromethylphenyl)-1,2,3,4-tetrahydropyrimidin-5-yl]-1H-pyrazol-1-yl]benzonitrile]
0.068 | CCCn1c(=O)c(-n2cnnc2-c2ccc(C#N)cc2)c(C)n(-c2cccc(C(F)(F)F)c2)c1=O [Example 62, 4-[4-[6-Methyl-2,4-dioxo-3-propyl-1-(3-trifluoromethylphenyl)-1,2,3,4-tetrahydropyrimidin-5-yl]-4H-1,2,4-triazol-3-yl]benzonitrile]
0.104 | CCOC(=O)Cn1c(=O)c(-c2ccnn2-c2ccc(C#N)cc2)c(C)n(-c2cccc(C(F)(F)F)c2)c1=O [Example 3]
0.064 | Cc1c(-c2ccnn2-c2ccc(C#N)cc2)c(=O)n(CCCCCNC(=O)OC(C)(C)C)c(=O)n1-c1cccc(C(F)(F)F)c1 [Example 30, Tert-butyl 5-[5-[1-(4-cyanophenyl)-1H-pyrazol-5-yl]-4-methyl-2,6-dioxo-3-(3-trifluoromethyl)-2,3-dihydropyrimidine-1 (6H)-yl]pentylcarbamate]
0.108 | Cc1c(-c2ccnn2-c2ccc(C#N)cc2)c(=O)n(CC(=O)N[C@@H](C)c2ccccc2)c(=O)n1-c1cccc(C(F)(F)F)c1 [Example 82, (S)-2-(5-(1-(4-cyanophenyl)-1H-pyrazole-5-yl)-4-methyl-2,6-dioxo-3-(3-(trifluoromethyl)phenyl)-2,3-dihydropyrimidin-1(6H)-yl)-N-(1-phenylethyl)acetamide]
0.0043 | Cc1c(-c2ccnn2-c2ccc(C#N)cc2)c(=O)n(CCCCCN)c(=O)n1-c1cccc(C(F)(F)F)c1 [Example 85, 4-[5-[3-(5-Aminopentyl)-6-methyl-2,4-dioxo-1-(3-trifluoromethylphenyl)-1,2,3,4-tetrahydropyrimidin-5-yl]-1H-pyrazol-1-yl]benzonitrile hydrochloride]
0.0032 | CC(=O)NCCCCCn1c(=O)c(-c2ccnn2-c2ccc(C#N)cc2)c(C)n(-c2cccc(C(F)(F)F)c2)c1=O [Example 86, N-[5-[5-[1-(4-Cyanophenyl)-1H-pyrazol-5-yl]-4-methyl-2,6-dioxo-3-(3-trifluoromethylphenyl)-2,3-dihydropyrimidin-1(6H)-yl]pentyl]acetamide]

Same assay, conditions: at 100 μM

Inhibition ratio (%) | Compound
76 | Cc1c(-c2ccnn2-c2ccc(C#N)cc2)c(=O)n(C)c(=O)n1-c1ccccc1C(F)(F)F [Example 15, 4-[5-[3,6-dimethyl-2,4-dioxo-1-(2-trifluoromethylphenyl)-1,2,3,4-tetrahydropyrimidin-5-yl]-1H-pyrazol-1-yl]benzonitrile]

Molecular target: T1, human neutrophil elastase
Test: Inhibitory action 2 against human neutrophil elastase (Test Example 2; fluorogenic substrate MeOSuc-AAPV-AMC, buffer with 400 mM NaCl, 0.2 mg/ml BSA)
Format: biochemical
Conditions: 37° C., read-out: IC50 value (compound concentration required for 50% inhibition of human neutrophil elastase)
How it was run: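 HNE (0.4 unit/ml in buffer) preincubated 5 min at 37° C with compound in 200 mM HEPES pH 7.5, 400 mM NaCl, 0.2 mg/ml BSA; reaction started with MeOSuc-AAPV-AMC (0.5 mM stock) and run 5 min at 37° C. AMC fluorescence (ex 380, em 460 nm) gave percent inhibition.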

IC50 [µM] | Compound
0.0169 | Cc1c(-c2ccnn2-c2ccc(C#N)cc2)c(=O)n(C)c(=O)n1-c1cccc(C(F)(F)F)c1 [Example 1, 4-[5-[3,6-dimethyl-2,4-dioxo-1-(3-trifluoromethylphenyl)-1,2,3,4-tetrahydropyrimidin-5-yl]-1H-pyrazol-1-yl]benzonitrile]
0.0234 | Cc1c(-c2ccnn2-c2ccc(C#N)cc2)c(=O)n(C)c(=O)n1-c1cccc(Cl)c1 [Example 17, 4-[5-[1-(3-chlorophenyl)-3,6-dimethyl-2,4-dioxo-1,2,3,4-tetrahydropyrimidin-5-yl]-1H-pyrazol-1-yl]benzonitrile]
0.0186 | CCCn1c(=O)c(-c2ccnn2-c2ccc(C#N)cc2)c(C)n(-c2cccc(C(F)(F)F)c2)c1=O [Example 2, 4-[5-[6-methyl-2,4-dioxo-3-propyl-1-(3-trifluoromethylphenyl)-1,2,3,4-tetrahydropyrimidin-5-yl]-1H-pyrazol-1-yl]benzonitrile]
